Measured values as given in patent publication US10968183B2, “Small molecule FIEL1 inhibitor in inflammatory and fibrotic lung injury” (UNIVERSITY OF PITTSBURGH—OF THE COMMONWEALTH SYSTEM OF …, priority 2015, dated 2021).
Peptide text beside a SMILES is read from it. * marks the point of attachment. Cbz = O=C(OCc1ccccc1)*

Experiments:
FIEL1/PIAS4 interaction = molecular target: T1, FIEL1/PIAS4 interaction (Homo sapiens, UniProt O15033); assay: In vitro drug binding assay: PIAS4 pull-down on drug-bound FIEL1 beads; conditions: FIG. 7
T1 construct: made in house; host or cells: 293T cells (FIEL1)
T1 sequence (O15033 1-789 isoform O15033-2): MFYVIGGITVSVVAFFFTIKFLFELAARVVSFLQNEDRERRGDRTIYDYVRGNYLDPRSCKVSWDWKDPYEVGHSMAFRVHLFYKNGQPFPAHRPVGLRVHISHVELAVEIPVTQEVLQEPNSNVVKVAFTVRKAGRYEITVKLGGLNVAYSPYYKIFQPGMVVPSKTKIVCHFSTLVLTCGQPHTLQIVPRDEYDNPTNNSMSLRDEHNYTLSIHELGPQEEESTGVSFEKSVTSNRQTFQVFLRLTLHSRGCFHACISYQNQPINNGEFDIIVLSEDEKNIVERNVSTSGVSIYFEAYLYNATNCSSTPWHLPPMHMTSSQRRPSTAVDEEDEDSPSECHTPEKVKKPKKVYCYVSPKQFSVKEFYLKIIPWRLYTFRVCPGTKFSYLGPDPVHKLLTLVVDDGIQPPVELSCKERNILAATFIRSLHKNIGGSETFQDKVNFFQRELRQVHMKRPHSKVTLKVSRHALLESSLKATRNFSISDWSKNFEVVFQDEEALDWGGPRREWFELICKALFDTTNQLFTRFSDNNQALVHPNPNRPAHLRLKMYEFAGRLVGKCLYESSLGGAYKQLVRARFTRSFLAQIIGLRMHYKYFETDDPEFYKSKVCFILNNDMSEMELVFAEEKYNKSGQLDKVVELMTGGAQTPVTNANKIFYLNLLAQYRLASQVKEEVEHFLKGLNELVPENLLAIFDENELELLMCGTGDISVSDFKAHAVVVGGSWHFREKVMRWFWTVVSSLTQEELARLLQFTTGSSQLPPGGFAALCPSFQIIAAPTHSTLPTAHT
Procedure: (§1) FIG. 7A. […] FIG. 7B. Structures of the BC-1480 backbone and lead compound BC-1485. FIG. 7C. FIEL1 protein was HIS-purified from FIEL1 expression in 293T cells using cobalt beads. Beads were then extensively washed prior to exposure to BC-1480 or BC-1485 at different concentrations (10^−4 to 100 μM). Purified PIAS4 protein was then incubated with drug-bound FIEL1 beads overnight. Beads were washed, and proteins were eluted and resolved on SDS-PAGE. The relative amounts of PIAS4 detected in the pull-downs was normalized to loading and quantified (n=2). FIG. 7D. MLE cells were exposed to BC-1480 or BC-1485 at various concentrations for 18 h. Cells were then collected and immunoblotted. FIGS. 7E-J. C57BL/6J mice were administered with bleomycin (0.05 U) for 7-21 days. Compounds BC-1480 and BC-1485 were given to mice through drinking water with an estimated dose of 5 mg/kg/d. Mice were euthanized, and lungs were lavaged with saline, harvested, and then homogenized. Lavage proteins, CXCL1, and total cell count were measured in FIGS. 7E-G. H. Survival studies of mice that were given bleomycin and compound treatments. Mice were carefully monitored over time; moribund, preterminal animals were immediately euthanized and recorded as deceased. Kaplan-Meier survival curves were generated using SPSS software (p<0.01 compared to Vehicle). Vehicle: n=24, BC-1480: n=13, BC-1485: n=12. FIG. 7I. Hydroxyproline contents were measured in lungs from 7, 14, and 21d after bleomycin challenge. FIG. 7J. Trichrome staining was performed on lung samples from E. Original magnification, ×10. *p<0.05 compared to Vehicle (t-test). Data are an average of two experiments (FIGS. 7E-J, 4-8 mice/group)
FIEL1 protein was HIS-purified from FIEL1 expression 293T cells using cobalt beads. Beads were then extensively washed prior to exposure to BC-1480 or BC-1485 at different concentrations (10^−4 to 100 μM). Purified recombinant PIAS4 protein was then incubated with drug-bound FIEL1 beads overnight. […] The relative amounts of PIAS4 detected in the pull-downs were normalized to loading and quantified.

[1] = system: α-SMA expression in MRC5 cells; assay: α-SMA expression in MRC5 cells co-treated with TGFβ; type: cell-based, human; conditions: Homo sapiens; MRC5 cells, TGFβ 2 ng/ml, 18 h; FIG. 15D; read-out: IC50 for decrease of α-SMA expression
Procedure: (§2) FIG. 15A. Diagram of the BC-1485 synthesis process. FIGS. 15B-15C. Docking studies of the lead compound, BC-1485, interacting with the FIEL1-HECT domain. FIG. 15D. MRC5 cells were treated with the compound at various doses; cells were also co-treated with TGFβ at 2 ng/ml. 18 h later, cells were collected and assayed for α-SMA expression. FIG. 15E. MRC5 cells were seeded in 35 mm glass bottom dishes before co-treatment with TGFβ at 2 ng/ml and BC-1480 or BC1485 at 5μM. FIG. 15F. PIAS4 protein half-life determination after BC-1480 or BC1485 treatment at 5μM for 18 h. FIG. 15G. PIAS4 and KIAA0317 mRNA analysis after BC1485 treatment for 18 h.
MLE cells were cultured in Dulbecco's Modified Eagle Medium-F12 (Gibco) supplemented with 10% fetal bovine serum (DMEM-10). 293T cells were cultured in Dulbecco's Modified Eagle Medium (Gibco) supplemented with 10% fetal bovine serum (DMEM-10). MRC5 cells were cultured in Eagle's Minimum Essential Medium (Gibco) supplemented with 10% fetal bovine serum (EMEM-10). For protein expression in MLE cells, nucleofection was used following Amaxa's protocol. For protein overexpression in 293T cells, Fugene6HD transfection reagents were used following the manufacturer's protocol. For protein expression in MRC5 cells, MRC-5 Cell Avalanche™ Transfection Reagent was used following manufacturer's protocol. Cells were treated with TGFβ at 0-2 ng/ml for 0-18 h. For FIEL1, PKCξ, or GSK3β knockdown studies in cells, scramble shRNA, KIAA0317, PKCξ, or GSK3β shRNA were used to transfect cells for 48 h. For drug treatment, compounds were solubilized in DMSO before being added to the cells for up to 18 h. Cell lysates were prepared by brief sonication in 150 mM NaCl, 50 mM Tris, 1.0 mM EDTA, 2 mM dithiothreitol, 0.025% sodium azide, and 1 mM phenylmethylsulfonyl fluoride (Buffer A) at 4° C. For half-life study, MLE cells were exposed to cycloheximide (40 μg/ml) in a time dependent manner for up to 8 h. Cells were then collected and immunoblotted.

[2] = system: bleomycin-induced lung injury in C57BL/6J mice; assay: Bleomycin lung fibrosis model in mice; type: in vivo; conditions: bleomycin 0.05 U i.t., 7-21 days; estimated 5 mg/kg/d
Procedure: as §1
C57BL/6J mice were administered i.t. with bleomycin (0.05 U) for 7-21 days. Compounds BC-1480 and BC-1485 were given to mice through drinking water with an estimated dose of 5 mg/kg/d. Mice were then euthanized, and lungs were lavaged with saline, harvested, and then homogenized. Lavage IL-6 was measured in (FIG. 16A). Lavage cells were also processed for Wright-Giemsa stain; Lavage macrophages, neutrophils and lymphocytes were counted and graphed (FIGS. 16B-16D). H&E staining was performed on lung samples from A. Original magnification, ×10. *p<0.05 compared to Vehicle (t test). Data are an average of two experiments (A-E, 4-8 mice/group).
Murine lungs were dried and weighed prior to digestion with HCl. Hydroxyproline concentrations were measuring using methods previously described in Kesava Reddy et al., Clinical Biochemistry, 29(3): 225-229 (1996), and Neuman et al., J. of Biol. Chem., 184(1): 299-306 (1950). Hydroxyproline content was normalized to dry lung weight.
All procedures were approved by the University of Pittsburgh Institutional Animal Care and Use Committee. For fibrosis studies, male C57BL/6J mice were deeply anesthetized using a ketamine/xylazine mixture, and the larynx was well visualized under a fiber optic light source before endotracheal intubation with a 3/400 24-gauge plastic catheter. 10^7 CFU of lentivirus encoding genes for Empty (E), FIEL1, CON shRNA, or KIAA0317 shRNA was given i.t. for 144 h before administration of bleomycin (0.02 U˜0.05 U i.t.) for up to 21 days. Animals were euthanized and assayed for BAL protein, cell count, cytokines, and lung infiltrates. Survival studies were performed on mice that were given bleomycin (0.02 U˜0.05 U i.t.). Mice were carefully monitored over time; moribund, preterminal animals were immediately euthanized and recorded as deceased. For drug studies, mice were deeply anesthetized as above. Bleomycin (0.05 U i.t.) was given i.t. before BC-1480 or BC-1485 (5 mg/kg/d) was administered to the mice through their drinking water. 7-21d later, animals were euthanized and analyzed as above.

PIAS4 = PIAS4 protein half-life study (cycloheximide) in MLE cells; type: cell-based, murine; conditions: addition of proteasomal or lysosomal inhibitor; FIG. 9B
Source text: FIG. 9A. PIAS4 protein half-life study in MLE cells transfected with Empty plasmid or Ubiquitin plasmid. FIG. 9B. PIAS4 protein half-life study with MG132 or Leupeptin. FIG. 9C. Immunoblots showing levels of PIAS4 proteins and V5 after ectopic FIEL1 or UBE3B plasmid expression. FIG. 9D. Immunoblots showing levels of FIEL1 proteins after ectopic FIEL1 plasmid expression in MLE, HeLa, and 293T cells. FIG. 9E. Immunoblots showing levels of PIAS4 proteins and V5 after ectopic FIEL1 plasmid expression in HeLa and 293T cells. FIG. 9F. MLE cells were transfected with an inducible control or FIEL1 plasmid under control of exogenous doxycycline. Cells were treated with doxycycline in a dose dependent manner. Cells were then collected and cell lysates were immunoblotted for FIEL1 and PIAS4. FIG. 9G. MRC5 cells were exposed to TGFβ for 24 h before being assayed for PIAS4 and FIEL1 protein half-lives.
as §2
MLE cells were cultured in Dulbecco's Modified Eagle Medium-F12 (Gibco) supplemented with 10% fetal bovine serum (DMEM-10). 293T cells were cultured in Dulbecco's Modified Eagle Medium (Gibco) supplemented with 10% fetal bovine serum (DMEM-10). MRC5 cells were cultured in Eagle's Minimum Essential Medium (Gibco) supplemented with 10% fetal bovine serum (EMEM-10). For protein expression in MLE cells, nucleofection was used following Amaxa's protocol. For protein overexpression in 293T cells, Fugene6HD transfection reagents were used following the manufacturer's protocol. […]

Row | Compound | inhibition of FIEL1 and PIAS4 interaction (FIEL1/PIAS4 interaction) | IC50 [1] | lung (pulmonary) fibrosis [2] | PIAS4 protein half-life (PIAS4)
1 | O=C(O)c1ccc(NS(=O)(=O)c2ccc3[nH]c(=O)[nH]c3c2)cc1 [BC-1480, 4-(2-oxo-2,3-dihydro-1H-benzo[d]imidazole-5-sulfonamido)benzoic acid] | inhibition of FIEL1 and PIAS4 interaction | ~4 µM | inhibition of pulmonary fibrosis | –
2 | CC(C)C[C@@H](C=O)NC(=O)[C@H](CC(C)C)NC(=O)[C@H](CC(C)C)NC(=O)OCc1ccccc1 [MG132] (Cbz-Leu-Leu-Leu-aldehyde) | – | – | – | significantly increased
3 | CC(=O)N[C@@H](CC(C)C)C(=O)N[C@@H](CC(C)C)C(=O)N[C@H](C=O)CCCNC(=N)N [Leupeptin] | – | – | – | an effect unobserved
